Structures can show the parent of a compound that is named as a salt.
target: EDG-1 (Homo sapiens, UniProt P21453); test: 35S-GTPγS binding assay, EDG1 (S1P1); type: biochemical; design: expressed in transfected cells; settings: not given
Protocol: a) 35S-GTPγS Binding Assay GTP-γ-^35S binding was performed using […]15 μg protein of cell membranes suspended in 50 mM tris-HCl pH 7.5 containing 10 mM MgCl2, 100 mM NaCl and 10 μM GDP. The radioligand was 0.025 nM [^35S] GTP-γ-S and non specific binding determined in the presence of 10 μM non-radioactive GTP-γ-S. […] The maximal stimulation elicited by S1P was taken as a reference to define full or partial agonism and calculate the intrinsic activity (i.a.) of compounds.

EDG-1, sequence (P21453 whole entry): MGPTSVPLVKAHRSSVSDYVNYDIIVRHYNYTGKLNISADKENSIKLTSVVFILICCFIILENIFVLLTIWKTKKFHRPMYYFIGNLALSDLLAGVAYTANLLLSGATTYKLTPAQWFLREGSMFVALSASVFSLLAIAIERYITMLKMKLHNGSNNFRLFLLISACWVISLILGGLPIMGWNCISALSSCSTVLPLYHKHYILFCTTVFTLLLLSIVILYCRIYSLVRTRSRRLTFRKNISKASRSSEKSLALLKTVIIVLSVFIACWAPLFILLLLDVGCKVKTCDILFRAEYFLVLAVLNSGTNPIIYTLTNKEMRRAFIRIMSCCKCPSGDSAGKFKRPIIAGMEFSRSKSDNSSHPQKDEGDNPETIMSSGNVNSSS

Structure (SMILES)	EC50 [nM]
CC(C)Cc1ccc(-c2nc(-c3ccc(CN4CCC(C(=O)O)(c5ccccc5)CC4)cc3)no2)cc1Cl [Example 23, 1-{4-[5-(3-Chloro-4-isobutylphenyl)-[1,2,4]-oxadiazol-3-yl]-benzyl}-4-phenylpiperidine-4-carboxylic acid tert-butyl amine salt]	< 10

same assay, conditions: Table 1b; read-out: EDG1 EC50

EC50 [nM]	Structure (SMILES)
< 10	CC(C)Cc1ccc(-c2nc(-c3ccc(CN4CCC(Cc5ccccc5)(C(=O)O)CC4)cc3)no2)cc1Cl [Example 24, 4-Benzyl-1-[4-{5-(3-chloro-4-isobutylphenyl)-[1,2,4]-oxadiazol-3-yl]benzyl}-piperidine-4-carboxylic acid tert-butyl amine salt]
< 1	CC(C)Cc1ccc(-c2nc(-c3ccc(CN4CCC(Cc5ccc(F)cc5)(C(=O)O)CC4)cc3)no2)cc1Cl [Example 25, 1-{4-[5-(3-Chloro-4-isobutyl-phenyl)-[1,2,4]-oxadiazol-3-yl]-benzyl}-4-(4-fluoro-benzyl)-piperidine-4-carboxylic acid tert-butyl amine salt]
< 1	CC(C)Cc1ccc(-c2nc(-c3ccc(CN4CCC(Cc5ccccc5F)(C(=O)O)CC4)cc3)no2)cc1Cl [Example 26, 1-{4-[5-(3-Chloro-4-isobutyl-phenyl)-[1,2,4]-oxadiazol-3-yl]-benzyl}-4-(2-fluoro-benzyl)-piperidine-4-carboxylic acid tert-butyl amine salt]
< 1	COc1ccccc1CC1(C(=O)O)CCN(Cc2ccc(-c3noc(-c4ccc(CC(C)C)c(Cl)c4)n3)cc2)CC1 [Example 28, 1-{4-[5-(3-Chloro-4-isobutyl-phenyl)-[1,2,4]-oxadiazol-3-yl]-benzyl}-4-(2-methoxy-benzyl)-piperidine-4-carboxylic acid tert-butyl amine salt]
< 1	CC(C)Cc1ccc(-c2nc(-c3ccc(CN4CCC(Cc5c(F)cccc5F)(C(=O)O)CC4)cc3)no2)cc1Cl [Example 35, 1-{4-[5-(3-Chloro-4-isobutyl-phenyl)-[1,2,4]-oxadiazol-3-yl]-benzyl}-4-(2,6-difluoro-benzyl)-piperidine-4-carboxylic acid tert-butyl amine salt]
< 10	CC(C)Cc1ccc(-c2nc(-c3ccc(CN4CCC(Cc5cccc(C(F)(F)F)c5)(C(=O)O)CC4)cc3)no2)cc1Cl [Example 38, 1-{4-[5-(3-Chloro-4-isobutyl-phenyl)-[1,2,4]-oxadiazol-3-yl]-benzyl}-4-(3-trifluoromethyl-benzyl)-piperidine-4-carboxylic acid tert-butyl amine salt]
< 10	CC(C)Cc1ccc(-c2nc(-c3ccc(CN4CCC(Cc5ccco5)(C(=O)O)CC4)cc3)no2)cc1Cl [Example 39, 1-{4-[5-(3-Chloro-4-isobutyl-phenyl)-[1,2,4]-oxadiazol-3-yl]-benzyl}-4-furan-2-ylmethyl-piperidine-4-carboxylic acid tert-butyl amine salt]
< 1	CC(C)Cc1ccc(-c2nc(-c3ccc(CN4CCC(Cc5ccccn5)(C(=O)O)CC4)cc3)no2)cc1Cl [Example 40, 1-{4-[5-(3-Chloro-4-isobutyl-phenyl)-[1,2,4]-oxadiazol-3-yl]-benzyl}-4-pyridin-2-ylmethyl-piperidine-4-carboxylic acid tert-butyl amine salt]
< 1	CC(C)Cc1ccc(-c2nc(-c3ccc(CN4CCC(Cc5cccnc5)(C(=O)O)CC4)cc3)no2)cc1Cl [Example 42, 1-{4-[5-(3-Chloro-4-isobutyl-phenyl)-[1,2,4]-oxadiazol-3-yl]-benzyl}-4-pyridin-3-ylmethyl-piperidine-4-carboxylic acid tert-butyl amine salt]
< 1	CC(C)Cc1ccc(-c2nc(-c3ccc(CN4CCC(Cc5ccncc5)(C(=O)O)CC4)cc3)no2)cc1Cl [Example 43, 1-{4-[5-(3-Chloro-4-isobutyl-phenyl)-[1,2,4]-oxadiazol-3-yl]-benzyl}-4-pyridin-4-ylmethyl-piperidine-4-carboxylic acid tert-butyl amine salt]

Second part, the molecule before the results:

Structure (SMILES)	EC50 [nM]
COCC1(C(=O)O)CCN(Cc2ccc(-c3noc(-c4ccc(CC(C)C)c(Cl)c4)n3)cc2)CC1 [Example 16, 1-{4-[5-(3-Chloro-4-isobutylphenyl)-[1,2,4]-oxadiazol-3-yl]-benzyl}-4-methoxymethylpiperidine-4-carboxylic acid tert-butyl amine salt]	< 1
C=CCC1(C(=O)O)CCN(Cc2ccc(-c3noc(-c4ccc(-c5ccccc5)c(Cl)c4)n3)cc2)CC1 [Example 17, 4-Allyl-1-{4-[5-(2-chlorobiphenyl-4-yl)-[1,2,4]-oxadiazol-3-yl]-benzyl}piperidine-4-carboxylic acid tert-butyl amine salt]	< 1
CCCC1(C(=O)O)CCN(Cc2ccc(-c3noc(-c4ccc(-c5ccccc5)c(Cl)c4)n3)cc2)CC1 [Example 18, 1-{4-[5-(2-Chlorobiphenyl-4-yl)-[1,2,4]-oxadiazol-3-yl]-benzyl}-4-propylpiperidine-4-carboxylic acid tert-butyl amine salt]	< 1
COCCOCC1(C(=O)O)CCN(Cc2ccc(-c3noc(-c4ccc(-c5ccccc5)c(Cl)c4)n3)cc2)CC1 [Example 19, 1-{4-[5-(2-Chlorobiphenyl-4-yl)-[1,2,4]-oxadiazol-3-yl]-benzyl}-4-(2-methoxyethoxymethyl)piperidine-4-carboxylic acid tert-butyl amine salt]	< 1
O=C(O)C1(COCc2ccccc2)CCN(Cc2ccc(-c3noc(-c4ccc(-c5ccccc5)c(Cl)c4)n3)cc2)CC1 [Example 20, 4-Benzyloxymethyl-1-{4-[5-(2-chlorobiphenyl-4-yl)-[1,2,4]-oxadiazol-3-yl]-benzyl}piperidine-4-carboxylic acid tert-butyl amine salt]	< 1
CC(C)Cc1ccc(-c2nc(-c3ccc(CN4CCC(COCc5ccccc5)(C(=O)O)CC4)cc3)no2)cc1Cl [Example 21, 4-Benzyloxymethyl-1-[4-{5-(3-chloro-4-isobutylphenyl)-[1,2,4]-oxadiazol-3-yl]-benzyl}piperidine-4-carboxylic acid tert-butyl amine salt]	< 1
O=C(O)C1(CO)CCN(Cc2ccc(-c3noc(-c4ccc(-c5ccccc5)c(Cl)c4)n3)cc2)CC1 [Example 22, 1-{4-[5-(2-Chlorobiphenyl-4-yl)-[1,2,4]-oxadiazol-3-yl]-benzyl}-4-hydroxymethylpiperidine-4-carboxylic acid tert-butyl amine salt]	< 1
COc1ccc(CC2(C(=O)O)CCN(Cc3ccc(-c4noc(-c5ccc(CC(C)C)c(Cl)c5)n4)cc3)CC2)cc1 [Example 27, 1-{4-[5-(3-Chloro-4-isobutyl-phenyl)-[1,2,4]-oxadiazol-3-yl]-benzyl}-4-(4-methoxy-benzyl)-piperidine-4-carboxylic acid tert-butyl amine salt]	< 1
COCC1(C(=O)O)CCN(Cc2ccc(-c3noc(-c4ccc(-c5ccccc5)c(Cl)c4)n3)cc2)CC1 [Example 29, 1-{4-[5-(2-chlorobiphenyl-4-yl)-[1,2,4]-oxadiazol-3-yl]benzyl}-4-methoxymethylpiperidine-4-carboxylic acid tert-butyl amine salt]	< 1
CCC1(C(=O)O)CCN(Cc2ccc(-c3noc(-c4ccc(-c5ccccc5)c(Cl)c4)n3)cc2)CC1 [Example 30, 1-{4-[5-(2-Chlorobiphenyl-4-yl)-[1,2,4]-oxadiazol-3-yl]-benzyl}-4-ethylpiperidine-4-carboxylic acid tert-butyl amine salt]	< 1
CC(C)Cc1ccc(-c2nc(-c3ccc(CN4CCC(C)(C(=O)O)CC4)cc3)no2)cc1 [Example 31, 1-{4-[5-(4-Isobutyl-phenyl)-[1,2,4]-oxadiazol-3-yl]-benzyl}-4-methyl-piperidine-4-carboxylic acid tert-butyl amine salt]	< 10
COCCCCC1(C(=O)O)CCN(Cc2ccc(-c3noc(-c4ccc(CC(C)C)c(Cl)c4)n3)cc2)CC1 [Example 32, 1-{4-[5-(3-Chloro-4-isobutylphenyl-[1,2,4]-oxadiazol-3-yl]benzyl}-4-(4-methoxybutyl)piperidine-4-carboxylic acid tert-butylamine salt]	< 1
COCCOCC1(C(=O)O)CCN(Cc2ccc(-c3noc(-c4ccc(CC(C)C)c(Cl)c4)n3)cc2)CC1 [Example 33, 1-{4-[5-(3-chloro-4-isobutylphenyl)-[1,2,4]-oxadiazol-3-yl]benzyl}-4-(2-methoxyethoxymethyl)piperidine-4-carboxylic acid potassium salt]	< 1
CC(C)Cc1ccc(-c2nc(-c3ccc(CN4CCC(CCOc5ccccc5)(C(=O)O)CC4)cc3)no2)cc1Cl [Example 34, 1-{4-[5-(3-Chloro-4-isobutyl-phenyl)-[1,2,4]-oxadiazol-3-yl]-benzyl}-4-(2-phenoxy-ethyl)-piperidine-4-carboxylic acid tert-butyl amine salt]	< 1
CC(C)Cc1ccc(-c2nc(-c3ccc(CN4CCC(CC(C)C)(C(=O)O)CC4)cc3)no2)cc1Cl [Example 36, 1-{4-[5-(3-Chloro-4-isobutyl-phenyl)-[1,2,4]-oxadiazol-3-yl]-benzyl}-4-isobutyl-piperidine-4-carboxylic acid tert-butyl amine salt]	< 10
CC(C)Cc1ccc(-c2nc(-c3ccc(CN4CCC(C(=O)O)(C(C)C)CC4)cc3)no2)cc1Cl [Example 37, 1-{4-[5-(3-Chloro-4-isobutyl-phenyl)-[1,2,4]-oxadiazol-3-yl]-benzyl}-4-isopropyl-piperidine-4-carboxylic acid tert-butyl amine salt]	< 1
COc1ccccc1OCCC1(C(=O)O)CCN(Cc2ccc(-c3noc(-c4ccc(CC(C)C)c(Cl)c4)n3)cc2)CC1 [Example 41, 1-{4-[5-(3-Chloro-4-isobutyl-phenyl)-[1,2,4]-oxadiazol-3-yl]-benzyl}-4-[2-(2-methoxy-phenoxy)-ethyl]-piperidine-4-carboxylic acid tert-butyl amine salt]	< 1

From patent publication US9266867B2, “Piperidinyl monocarboxylic acids as S1P1 receptor agonists” (BIOPROJET, priority 2011, dated 2016)
